Reference: patent publication US10322131B2, “Hydroxyacid derivatives, a process for their preparation and pharmaceutical compositions containing them” (LES LABORATOIRES SERVIER, priority 2015, dated 2019)

Assays:
Mcl-1 protein = Mcl-1 protein (Homo sapiens, UniProt Q07820); experiment: Inhibition of Mcl-1 by the fluorescence polarisation technique; format: binding; conditions: fluorescence polarisation test; Fluorescein labelled ligand 1 nM, Mcl-1 protein 5 nM, ~2 hours at r.t.; read-out: IC50 (M) Mcl-1 FP
Protocol: The relative binding potency of each compound was determined via Fluorescence Polarisation (FP). The method utilised a Fluorescein labelled ligand (Fluorescein-βAla-Ahx-A-REIGAQLRRMADDLNAQY-OH; mw 2,765) which binds to the Mcl-1 protein (such that Mcl-1 corresponds to the UniProtKB® primary accession number: Q07820) leading to an increased anisotropy measured in milli-polarisation (mP) units using a reader. The addition of a compound which binds competitively to the same site as the ligand will result in a greater proportion of unbound ligand in the system indicated by a decrease in mP units.
An 11 point serial dilution of each compound was prepared in DMSO and 2 μl transferred into flat bottomed, low binding, 384-well plate (final DMSO concentration 5%). 38 μl of buffer (10 mM 4-(2-hydroxyethyl)-1-piperazineethanesulfonic acid [HEPES], 150 mM NaCl, 0.05% Tween 20, pH 7.4), containing the Fluorescein labelled ligand (final concentration 1 nM) and Mcl-1 protein (final concentration 5 nM) was then added.
Assay plates were incubated ˜2 hours at r.t. before FP was measured on a Biomek Synergy2 reader (Ex. 528 nm, Em. 640 nm, Cut off 510 nm) and mP units calculated. The binding of increasing doses of test compound was expressed as a percentage reduction in mP compared to a window established between ‘5% DMSO only’ and ‘100% inhibition’ controls. 11-point dose response curves were plotted with XL-Fit software using a 4-Parameter Logistic Model (Sigmoidal Dose-Response Model) and the inhibitory concentrations that gave a 50% reduction in mP (IC50) were determined.

H929 cells = experiment: In vitro cytotoxicity (MTT) on H929 multiple myeloma tumour line; format: cell-based; conditions: Microculture Tetrazolium Assay
Protocol: The cytotoxicity studies were carried out on the H929 multiple myeloma tumour line.
The cells are distributed onto microplates and exposed to the test compounds for 48 hours.
The cell viability is then quantified by a colorimetric assay, the Microculture Tetrazolium Assay (Cancer Res., 1987, 47, 939-942).

[1] = Homo sapiens, NCI-H929, exposed 48 hours

Chain of Mcl-1 protein (Q07820 whole entry): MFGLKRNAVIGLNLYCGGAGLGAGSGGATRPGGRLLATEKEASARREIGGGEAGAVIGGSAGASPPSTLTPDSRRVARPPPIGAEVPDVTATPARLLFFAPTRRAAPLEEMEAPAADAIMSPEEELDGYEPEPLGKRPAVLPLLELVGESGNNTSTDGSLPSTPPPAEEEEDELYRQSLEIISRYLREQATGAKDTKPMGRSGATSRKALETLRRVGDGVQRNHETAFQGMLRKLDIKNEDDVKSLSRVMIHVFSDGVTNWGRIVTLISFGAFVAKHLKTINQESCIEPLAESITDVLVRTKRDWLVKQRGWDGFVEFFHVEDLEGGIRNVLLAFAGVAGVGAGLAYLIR

SMILES	IC50 (Mcl-1 protein)	IC50 (H929 cells; [1])	IC50 (H929 cells; exposed 48 hours)
Cc1c(-c2c(-c3ccc(F)cc3)sc3ncnc(OC(Cc4ccccc4OCc4ccnc(-c5cccc(O)c5)n4)C(=O)O)c23)ccc(OCCN2CCN(C)CC2)c1Cl [Example 1, (2R)-2-{[(5Sa)-5-{3-chloro-2-methyl-4-[2-(4-methylpiperazin-1-yl)ethoxy]phenyl}-6-(4-fluorophenyl)thieno[2,3-d]pyrimidin-4-yl]oxy}-3-(2-{[2-(3-hydroxyphenyl)pyrimidin-4-yl]methoxy}phenyl)propanoic acid]	8.4e-09 M	9.31 nM	–
Cc1c(-c2c(-c3ccc(F)cc3)sc3ncnc(OC(Cc4ccccc4OCc4ccnc(-c5ccc(OCC6OC(O)C(O)C(O)C6O)cc5)n4)C(=O)O)c23)ccc(OCCN2CCN(C)CC2)c1Cl [Example 20, 6-O-{4-[4-({2-[(2R)-2-carboxy-2-{[(5Sa)-5-{3-chloro-2-methyl-4-[2-(4-methylpiperazin-1-yl)ethoxy]phenyl}-6-(4-fluorophenyl)thieno[2,3-d]pyrimidin-4-yl]oxy}ethyl]phenoxy}methyl)pyrimidin-2-yl]phenyl}-D-mannopyranose]	4.35e-09 M	56.8 nM	–
Cc1c(-c2c(-c3ccc(F)cc3)sc3ncnc(OC(Cc4ccccc4OCc4ccnc(-c5ccc(CO)cc5)n4)C(=O)O)c23)ccc(OCCN2CCN(C)CC2)c1Cl [Example 4, (2R)-2-{[(5Sa)-5-{3-chloro-2-methyl-4-[2-(4-methylpiperazin-1-yl)ethoxy]phenyl}-6-(4-fluorophenyl)thieno[2,3-d]pyrimidin-4-yl]oxy}-3-[2-({2-[4-hydroxymethyl)phenyl]pyrimidin-4-yl}methoxy)phenyl]propanoic acid]	4.9e-09 M	3.64 nM	–
Cc1c(-c2c(-c3ccc(F)cc3)sc3ncnc(OC(Cc4ccccc4OCc4ccnc(-c5ccc(CCO)cc5)n4)C(=O)O)c23)ccc(OCCN2CCN(C)CC2)c1Cl [Example 24, (2R)-2-{[(5Sa)-5-{3-chloro-methyl-4-[2-(4methylpiperazin-1-yl)ethoxy]phenyl}-6-(4-fluorophenyl)thieno[2,3-d]pyrimidin-4-yl]oxy}-3-[2-({2-[4-(2-hydroxyethyl)phenyl]pyrimidin-4-yl}methoxy)phenyl]propanoic acid]	3.15e-09 M	2.55 nM	–
Cc1c(-c2c(-c3ccc(F)cc3)sc3ncnc(OC(Cc4ccccc4OCc4ccnc(-c5cccc(COC(=O)NCCN(C)C)c5)n4)C(=O)O)c23)ccc(OCCN2CCN(C)CC2)c1Cl [Example 43, (2R)-2-{[(5Sa)-5-{3-chloro-2-methyl-4-[2-(4-methylpiperazin-1-yl)ethoxy]phenyl}-6-(4-fluorophenyl)thieno[2,3-d]pyrimidin-4-yl]oxy}-3-{2-[(2-{3-[({[2-(dimethylamino)ethyl]carbamoyl}oxy)methyl]phenyl}pyrimidin-4-yl)methoxy]phenyl}propanoic acid]	4.55e-09 M	31.1 nM	–
Cc1c(-c2c(-c3ccc(F)cc3)sc3ncnc(OC(Cc4ccccc4OCc4ccnc(-c5cccc(COC(=O)NCCOCCOCCOCCO)c5)n4)C(=O)O)c23)ccc(OCCN2CCN(C)CC2)c1Cl [Example 36, (2R)-2-{[(5Sa)-5-{3-chloro-2-methyl-4-[2-(4-methylpiperazin-1-yl)ethoxy]phenyl}-6-(4-fluorophenyl)thieno[2,3-d]pyrimidin-4-yl]oxy}-3-[2-({2-[3-(15-hydroxy-3-oxo-2,7,10,13-tetraoxa-4-azapentadec-1-yl)phenyl]pyrimidin-4-yl}methoxy)phenyl]propanoic acid]	4.65e-09 M	75.9 nM	–
Cc1c(-c2c(-c3ccc(F)cc3)sc3ncnc(OC(Cc4ccccc4OCc4ccnc(-c5cccc(COC(=O)N6CCOCCOCCOCCOCCOCC6)c5)n4)C(=O)O)c23)ccc(OCCN2CCN(C)CC2)c1Cl [Example 46, (2R)-2-{[(5Sa)-5-{3-chloro-2-methyl-4-[2-(4-methylpiperazin-1-yl)ethoxy]phenyl}-6-(4-fluorophenyl)thieno[2,3-d]pyrimidin-4-yl]oxy}-3-(2-{[2-(3-{[(1,4,7,10,13-pentaoxa-16-azacyclooctadecan-16-ylcarbonyl)oxy]methyl}phenyl)pyrimidin-4-yl]methoxy}phenyl)propanoic acid]	2.55e-09 M	23.4 nM	–
Cc1c(-c2c(-c3ccc(F)cc3)sc3ncnc(O[C@H](Cc4ccccc4OCc4ccnc(-c5ccccc5OC[C@@H](O)[C@@H](O)[C@H](O)[C@H](O)C(=O)O)n4)C(=O)O)c23)ccc(OCCN2CCN(C)CC2)c1Cl [Example 21]	4.85e-09 M	–	> 150 nM
Cc1c(-c2c(-c3ccc(F)cc3)sc3ncnc(OC(Cc4ccccc4OCc4ccnc(-c5ccccc5OCC5COC(C)(C)O5)n4)C(=O)O)c23)ccc(OCCN2CCN(C)CC2)c1Cl [Example 5, (2R)-2-{[(5Sa)-5-{3-chloro-2-methyl-4-[2-(4-methylpiperazin-1-yl)ethoxyl]phenyl}-6-(4-fluorophenyl)thieno[2,3-d]pyrimidin-4-yl]oxy}-3-{2-[(2-{2-[(2,2-dimethyl-1,3-dioxolan-4-yl)methoxyl]phenyl}pyrimidin-4-yl)methoxy]phenyl}propanoic acid]	3.7e-09 M	1.65 nM	–
Cc1c(-c2c(-c3ccc(F)cc3)sc3ncnc(OC(Cc4ccccc4OCc4ccnc(-c5cccc(COCCO)c5)n4)C(=O)O)c23)ccc(OCCN2CCN(C)CC2)c1Cl [Example 12, (2R)-2-{[(5Sa)-5-{3-chloro-2-methyl-4-[2-(4-methylpiperazin-1-yl(ethoxy]phenyl}-6-(4-fluorophenyl)thieno[2,3-d]pyrimidin-4-yl]oxy}-3-{2-[(2-{3-[(2-hydroxyethoxy)methyl]phenyl}pyrimidin-4-yl)methoxy]phenyl}propanoic acid]	4.25e-09 M	3.82 nM	–
COCCOCCOc1ccccc1-c1nccc(COc2ccccc2CC(Oc2ncnc3sc(-c4ccc(F)cc4)c(-c4ccc(OCCN5CCN(C)CC5)c(Cl)c4C)c23)C(=O)O)n1 [Example 6, (2R)-2-{[(5Sa)-5-{3-chloro-2-methyl-4-[2-(4-methylpiperazin-1-yl)ethoxy]phenyl}-6-(4-fluoropnhenyl)thieno[2,3-d]pyrimidin-4-yl]oxy}-3-{2-[(2-{2-[2-(2-methoxyethoxy)ethoxy]phenyl}pyrimidin-4-yl)methoxy]phenyl}propanoic acid]	1.57e-08 M	3.25 nM	–
COC1OC(COc2ccc(-c3nccc(COc4ccccc4CC(Oc4ncnc5sc(-c6ccc(F)cc6)c(-c6ccc(OCCN7CCN(C)CC7)c(Cl)c6C)c45)C(=O)O)n3)cc2)C(O)C(O)C1O [Example 18, methyl 6-O-{4-[4-({2-[(2R)-2-carboxy-2-{[(5Sa)-5-{3-chloro-2-methyl-4-[2-(4-methylpiperazin-1-yl)ethoxy]phenyl}-6-(4-flurophenyl)thieno[2,3-d]pyrimidin-4-yl]oxy}ethyl]phenoxy}methyl)pyrimidin-2-yl]phenyl}-α-D-mannopyranoside]	4.1e-09 M	–	13.9 nM
Cc1c(-c2c(-c3ccc(F)cc3)sc3ncnc(OC(Cc4ccccc4OCc4ccnc(-c5cccc(OCCO)c5)n4)C(=O)O)c23)ccc(OCCN2CCN(C)CC2)c1Cl [Example 30, (2R)-2-{[(5Sa)-5-{3-chloro-2-methyl-4-[2-(4-methylpiperazin-1-yl)ethoxy]phenyl}-6-(4-fluorophenyl)thieno[2,3-d]pyrimidin-4-yl]oxy}-3-[2-({2-[3-(2-hydroxyethoxy)phenyl]pyrimidin-4-yl-}methoxy)phenyl]propanoic acid]	4.5e-09 M	3.6 nM	–
COCC(COC)Oc1ccc(-c2nccc(COc3ccccc3CC(Oc3ncnc4sc(-c5ccc(F)cc5)c(-c5ccc(OCCN6CCN(C)CC6)c(Cl)c5C)c34)C(=O)O)n2)cc1 [Example 14, (2R)-2-{[(5Sa)-5-{3-chloro-2-methyl-4-[2-(4-methylpiperazin-1-yl)ethoxy]phenyl}-6-(4-fluorophenyl)thieno[2,3-d]pyrimidin-4-yl]oxy}-3-{(2-[(2-{4-[(1,3-dimethoxypropan-2-yl)oxy]phenyl}pyrimidin-4-yl)methoxy]phenyl}propanoic acid]	6.15e-09 M	3.37 nM	–
Cc1c(-c2c(-c3ccc(F)cc3)sc3ncnc(OC(Cc4ccccc4OCc4ccnc(-c5ccc(O)cc5)n4)C(=O)O)c23)ccc(OCCN2CCN(C)CC2)c1Cl [Example 2, (2R)-2-{[(5Sa)-5-{3-chloro-2-methyl-4-[2-(4-methylpiperazin-1-yl)ethoxy]phenyl}-6-(4-fluorophenyl)thieno[2,3-d]pyrimidin-4-yl]oxy}-3-(2-{[2-(4-hydroxyphenyl)pyrimidin-4-yl]methoxy}phenyl)propanoic acid]	1.32e-08 M	15.9 nM	–
